The values below come from article PMC8844822, “SARM1 is a multi-functional NAD(P)ase with prominent base exchange activity, all regulated bymultiple physiologically relevant NAD metabolites” (iScience, 2022).

Experiment [1] has as its target T1, Aplysia californica ADP ribosyl cyclase (Aplysia californica, UniProt P29241).
T1 sequence (P29241 25-282): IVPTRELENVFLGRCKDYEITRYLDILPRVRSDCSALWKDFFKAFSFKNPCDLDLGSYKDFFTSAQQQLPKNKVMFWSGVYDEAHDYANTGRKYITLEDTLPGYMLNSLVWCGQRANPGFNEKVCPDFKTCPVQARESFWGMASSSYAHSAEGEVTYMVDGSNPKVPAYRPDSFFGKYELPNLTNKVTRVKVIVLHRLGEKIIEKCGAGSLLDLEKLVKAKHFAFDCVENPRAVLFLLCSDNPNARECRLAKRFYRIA
Particulars: for use as substrate (consumption rate): dinucleotide 250 μM, 25°C, 2–6 h; for effect of metal ion on activity: metal ions 1 mM. The method, then:
(§1) hSARM1 species were routinely assayed by the NAD/NADH-Glo^TM Assay (Promega) while both Aplysia cyclase and CD38 were assayed by fluorometry using ϵNAD ([Orsomando et al., 2000]). […] Other reagents used in addition to, or in place of those above are detailed in text or in figure legends, for example metal ions, free bases, dinucleotide analogues, mononucleotides, and ribosides. Assays were all carried out at 25°C except for temperature studies. Reactions were stopped by HClO4/K2CO3 and analysed by C18-HPLC as reported ([Mori et al., 2014]). Only the acid labile NADH and NADPH were treated with 1 N NaOH and neutralized using 1:1 vol of 1.73 M KH2CO3 while the highly hydrophobic metabolites vacor, VAD, VMN and VR, were analysed by a modified C18-HPLC method ([Buonvicino et al., 2018]). Reaction products were quantified from peak areas (see Figure 2A) based on coelution with standards (except for cyclic products from NAD analogues that were not available and were attributed based on UV-spectra and retention times as predicted). Rates were calculated as follows. Hydrolysis and cyclization were measured from product generation from the respective individual dinucleotide substrate used, e.g., free and cyclic ADP-ribosyl moieties from NAD (Figure 1B). A basal value for hydrolysis/cyclization was taken as sum of these latter two products. In addition to that value, base exchange or transglycosidation was calculated from the expected dinucleotide analog formed in the presence of the corresponding free base, e.g., AcPyrAD from AcPyr and NAD.
(§2) The kinetic parameters were calculated from initial rates obtained from replicates via best-fitting analysis using the following Equation 1 for CD38 and Aplysia cyclase, or Equation 2 for hSARM1 SAM-TIR, or Equation 3 for hSARM1 full length(Equation 1) V =Vmax[S]/Km+[S] […] In that case, the resulting single curves were fit to Equation 3 as above to evaluate any competition between NMN and the substrate used (see Table 1).

The target in experiment [2] is T2, hSARM1 full length (Homo sapiens, UniProt Q6SZW1).
T2 construct: Human recombinant SARM1 full length proteins (wild-type and E642A mutant); made in house
T2 sequence (Q6SZW1 28-724): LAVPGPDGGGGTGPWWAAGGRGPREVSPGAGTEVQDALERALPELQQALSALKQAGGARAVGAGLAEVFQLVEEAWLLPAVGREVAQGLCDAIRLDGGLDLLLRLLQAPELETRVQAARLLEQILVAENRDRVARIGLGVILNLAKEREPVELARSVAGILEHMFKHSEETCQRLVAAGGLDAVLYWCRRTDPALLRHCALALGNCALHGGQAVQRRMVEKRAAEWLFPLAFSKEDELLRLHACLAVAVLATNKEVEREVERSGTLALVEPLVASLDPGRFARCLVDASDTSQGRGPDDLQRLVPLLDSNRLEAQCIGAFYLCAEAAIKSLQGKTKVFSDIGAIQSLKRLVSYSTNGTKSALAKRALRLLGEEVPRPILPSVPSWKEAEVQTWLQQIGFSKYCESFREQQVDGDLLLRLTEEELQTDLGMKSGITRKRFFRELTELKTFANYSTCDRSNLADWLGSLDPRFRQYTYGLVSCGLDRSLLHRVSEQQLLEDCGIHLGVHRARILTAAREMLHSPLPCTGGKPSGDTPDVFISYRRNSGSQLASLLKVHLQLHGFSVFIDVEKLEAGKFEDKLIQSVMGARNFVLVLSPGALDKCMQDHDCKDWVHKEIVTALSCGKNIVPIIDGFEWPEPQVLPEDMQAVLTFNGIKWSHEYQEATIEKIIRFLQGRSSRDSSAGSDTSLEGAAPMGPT
The experiment can be described thus: NAD(P)ase activity by HPLC (kinetics, substrates, metal ions). Type of experiment: biochemical. Particulars: hSARM1; for use as substrate (consumption rate): dinucleotide 250 μM, 25°C, 2–6 h; for effect of metal ion on activity: metal ions 1 mM. Here is the method:
as §1, §2

Experiment [3] deals with T3, hCD38 (Homo sapiens, UniProt P28907).
T3 construct: a soluble fragment Val43-Ile300 with 6x-His tag at C terminus; 6xHis (C); purchased R&D Systems
T3 sequence (P28907 43-300): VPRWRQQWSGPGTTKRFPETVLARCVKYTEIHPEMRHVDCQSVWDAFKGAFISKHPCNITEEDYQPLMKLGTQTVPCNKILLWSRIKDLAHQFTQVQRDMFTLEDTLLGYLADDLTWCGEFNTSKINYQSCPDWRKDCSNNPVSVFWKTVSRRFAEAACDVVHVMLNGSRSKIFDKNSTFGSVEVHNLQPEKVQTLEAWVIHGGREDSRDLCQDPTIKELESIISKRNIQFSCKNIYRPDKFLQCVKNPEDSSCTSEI
Described as above. Type of experiment: biochemical. Particulars: for use as substrate (consumption rate): dinucleotide 250 μM, 2–6 h; for effect of metal ion on activity: metal ions 1 mM. Here is the method:
as §1, §2

Experiment [4] deals with T2, hSARM1 full length. The experiment in a line: Base exchange reactions at neutral pH (HPLC). Type of experiment: biochemical. Particulars: for increase of all hSARM1 activities by trigger (plateau): hSARM1 full length, NMN 0.2 mM or VMN 0.05 mM, NAD or NADP 250 μM with or without bases. The method, then: (§3) Multiple time stops from individual assays as above were analyzed for linearity, then extents of hydrolysis (white bars), cyclization (red bars), or base exchange (black bars) were calculated from each corresponding product as shown in Figure 1B and STAR methods. […] See also Figures S3–S5, and Table S1
as §1

Experiment [5] has as its target T3, hCD38. The experiment in a line: Base exchange reactions at neutral pH (HPLC). Type of experiment: biochemical. Particulars: NADP […] alone or + AcPyr 2 mM / Vacor 0.5 mM / Na 2 mM. The method, then: as §3, §1
Setting [6] is: hSARM1 full length +NMN 0.2 mM, NAD […].
[7] abbreviates: hSARM1 full length +NMN 0.2 mM, NADP […].
[8] abbreviates: hSARM1 full length +VMN 0.05 mM, NAD […].
Setting [9] is: hSARM1 full length +VMN 0.05 mM, NADP […].

Take `NC(=O)C1=CN([C@@H]2O[C@H](COP(=O)(O)OP(=O)(O)OC[C@H]3O[C@@H](n4cnc5c(N)ncnc54)[C@H](O)[C@@H]3O)[C@@H](O)[C@H]2O)C=CC1` [NADH]: the “use as substrate (consumption rate)” value was “negligible usage” in experiment [1]; “negligible usage” in experiment [2]; “negligible usage” in experiment [3] (hCD38, 25°C).
For the compound `NC(=O)C1=CN([C@@H]2O[C@H](COP(=O)(O)OP(=O)(O)OC[C@H]3O[C@@H](n4cnc5c(N)ncnc54)[C@H](OP(=O)(O)O)[C@@H]3O)[C@@H](O)[C@H]2O)C=CC1` [NADPH], the “use as substrate (consumption rate)” value in experiment [1] is recorded as “negligible usage”; in experiment [2], “negligible usage”; in experiment [3] (hCD38, 25°C) it was “negligible usage”.
Take `NC(=O)c1ccc[n+]([C@@H]2O[C@H](COP(=O)([O-])OP(=O)(O)OC[C@H]3O[C@@H](n4cnc5c(=O)[nH]c(N)nc54)[C@H](O)[C@@H]3O)[C@@H](O)[C@H]2O)c1` [NGD, nicotinamide guanine dinucleotide]: in experiment [3] (CD38), the “cyclization, share of total substrate consumption” value is approximately 80%.
On to `NC(=O)c1ccc[n+]([C@@H]2O[C@H](COP(=O)([O-])O)[C@@H](O)[C@H]2O)c1` [NMN, nicotinamide mononucleotide], for which the “cyclization, share of products” value in experiment [4] (setting [6]) is reported as 9.51%; in experiment [4] (setting [7]) it was ~ 0.05%. Also, the “hydrolysis, share of products” value in experiment [4] (setting [6]) stood at 90.49%; in experiment [4] (setting [7]), 99.95%. For the same compound, the rate in experiment [4] (hSARM1 full length +NMN 0.2 mM, NAD […] alone or + free base) worked out at 187.9 ±26.9 mU/mg; in experiment [4] (hSARM1 full length +NMN 0.2 mM, NADP […] alone or + free base), 117.3 ±4.72 mU/mg. The “rate (relative fold)” value stood at 8.61±1.23 fold in experiment [4] (hSARM1 full length +NMN 0.2 mM, NAD […], relative to NAD alone without trigger) and 7.98 ±0.321 fold in experiment [4] (hSARM1 full length +NMN 0.2 mM, NADP […], relative to NADP alone without trigger). In addition, the “increase of all hSARM1 activities by trigger (plateau)” value in experiment [4] is recorded as 8- to 10 fold.
On to `Nc1ncnc2c1ncn2[C@@H]1O[C@H](COP(=O)(O)OP(=O)(O)OC[C@H]2O[C@@H]([n+]3cccc(C(=O)O)c3)[C@H](O)[C@@H]2O)[C@@H](O)[C@H]1O` [NaAD, nicotinic acid adenine dinucleotide], for which the “use as substrate (consumption rate)” value in experiment [1] is reported as “negligible usage”; in experiment [2], “negligible usage”; in experiment [3] (hCD38, 25°C), “negligible usage”.
Turning to `Nc1ncnc2c1ncn2[C@@H]1O[C@H](COP(=O)(O)OP(=O)([O-])OC[C@H]2O[C@@H]([n+]3cccc(CNC(=O)Nc4ccc([N+](=O)[O-])cc4)c3)[C@H](O)[C@@H]2O)[C@@H](O)[C@H]1O` [VAD, vacor adenine dinucleotide], the “use as substrate (consumption rate)” value in experiment [1] is given as “no activity”; in experiment [2] it was “no activity”; in experiment [3] (hCD38, 25°C), “no activity”.
Take `O=C(NCc1ccc[n+]([C@@H]2O[C@H](COP(=O)(O)O)[C@@H](O)[C@H]2O)c1)Nc1ccc([N+](=O)[O-])cc1` [VMN, vacor mononucleotide]: the “cyclization, share of products” value in experiment [4] (setting [8]) is on record as 8.79%; in experiment [4] (setting [9]), 0.64%. Moreover, the “hydrolysis, share of products” value came to 91.21% in experiment [4] (setting [8]) and 99.36% in experiment [4] (setting [9]). Moreover, the rate in experiment [4] (hSARM1 full length +VMN 0.05 mM, NAD […] alone or + free base) was 210.1 ±14.4 mU/mg; in experiment [4] (hSARM1 full length +VMN 0.05 mM, NADP […] alone or + free base), 138.3 ±1.72 mU/mg. Also, the “rate (relative fold)” value in experiment [4] (hSARM1 full length +VMN 0.05 mM, NAD […], relative to NAD alone without trigger) is 9.63 ±0.660 fold; in experiment [4] (hSARM1 full length +VMN 0.05 mM, NADP […], relative to NADP alone without trigger) it was 9.41 ±0.117 fold. The “increase of all hSARM1 activities by trigger (plateau)” value in experiment [4] is 8- to 10 fold.
As for `[Cu+2]` [copper], the “effect of metal ion on activity” value in experiment [1], in experiment [2] and in experiment [3] (hCD38) was “clear inhibition” in each case.
`[Mg]` [magnesium]: the “effect of metal ion on activity” value in experiment [1], in experiment [2] and in experiment [3] (hCD38) was “no effect” in each case.
`[Zn+2]` [zinc]: the “effect of metal ion on activity” value in experiment [1], in experiment [2] and in experiment [3] (hCD38) was “clear inhibition” in each case.
Regarding `NC(=O)c1ccc[n+]([C@H]2O[C@H](COP(=O)([O-])OP(=O)(O)OC[C@H]3O[C@@H](n4cnc5c(N)ncnc54)[C@H](O)[C@@H]3O)[C@@H](O)[C@H]2O)c1` [αNAD, alpha-NAD], the “use as substrate (consumption rate)” value is reported as “no activity” in experiment [1]; “no activity” in experiment [2]; “no activity” in experiment [3] (hCD38, 25°C).
By Km is commonly meant the substrate concentration at which the rate is half of its maximum. As for “nicotinamide adenine dinucleotide phosphate [NADP]”, the Km in experiment [1] (substrate as labelled) was found to be 384 ± 0.17 µM; in experiment [3] (hCD38, substrate as labelled, 25°C, pH 7.5), 11.7 ± 0.88 µM. Moreover, the Vmax in experiment [1] (substrate as labelled) is reported as 20,043 ± 724 mU/mg; in experiment [3] (hCD38, substrate as labelled), 4376 ± 24.1 mU/mg. In experiment [5], the rate worked out at 3521 ±605 mU/mg.
In the case of “nicotinic acid adenine dinucleotide phosphate [NaADP]”, the “use as substrate (consumption rate)” value in experiment [1] is reported as “negligible usage”; in experiment [2] it was “negligible usage”; in experiment [3] (hCD38, 25°C) it was “negligible usage”.
